# Experimental data from patent publication US4459290A, “C-23-Modified derivatives of OMT, pharmaceutical compositions and method of use” (priority 1982, dated 1984).
# Where a name gives a salt, the structure may show the parent alone. Read-outs that look alike come from different tables or passages of the source.
# Legend:
# [1] = tested on: Streptococcus pneumoniae Park I; test: microbe, parasite or virus in culture; format: cell-based; settings: Streptococcus pneumoniae
# Procedure: (§1) Especially noteworthy is the improved activity against gram-negative bacteria for several derivatives when compared to the activity of OMT. […] The MIC's in Tables V and VI were determined by standard agar-dilution assays. The MIC's in Table VII were obtained using a conventional broth-dilution microtiter test.
# [2] = tested on: Haemophilus influenzae R252; test: MIC, standard agar-dilution assay (Table V); format: cell-based; settings: Haemophilus influenzae
# Procedure: (§2) The MIC's in Tables V and VI were determined by standard agar-dilution assays. The MIC's in Table VII were obtained using a conventional broth-dilution microtiter test.
# [3] = tested on: Haemophilus influenzae Holt; test: MIC, standard agar-dilution assay (Table V); format: cell-based; settings: Haemophilus influenzae
# Procedure: as §2
# [4] = tested on: Streptococcus pyogenes C203; test: MIC, standard agar-dilution assay (Table V); format: cell-based; settings: Streptococcus pyogenes
# Procedure: as §2
# Escherichia coli TEM = test: MIC, standard agar-dilution assay (Table V); format: cell-based; settings: Escherichia coli
# Procedure: as §2
# Escherichia coli N10 = test: MIC, standard agar-dilution assay (Table V); format: cell-based; settings: Escherichia coli, N10
# Procedure: as §1
# [5] = tested on: Streptococcus Group D X66; test: MIC, standard agar-dilution assay (Table V); format: cell-based
# Procedure: as §1
# [6] = tested on: Staphylococcus aureus X1.1; test: MIC, standard agar-dilution assay (Table V); format: cell-based; settings: Staphylococcus aureus, X1.1
# Procedure: as §1
# [7] = tested on: Staphylococcus aureus S13E; test: MIC, standard agar-dilution assay (Table V); format: cell-based; settings: Staphylococcus aureus, S13E
# Procedure: as §1
# [8] = tested on: Staphylococcus aureus V41; test: MIC, standard agar-dilution assay (Table V); format: cell-based; settings: Staphylococcus aureus, V41
# Procedure: as §1
# Escherichia coli EC14 = test: MIC, standard agar-dilution assay (Table V); format: cell-based; settings: Escherichia coli, EC14
# Procedure: as §1
# [9] = tested on: Klebsiella pneumoniae X26; test: MIC, standard agar-dilution assay (Table V); format: cell-based; settings: Klebsiella pneumoniae
# Procedure: as §1
# Shigella sonnei N9 = test: MIC, standard agar-dilution assay (Table V); format: cell-based
# Procedure: as §1
# [10] = tested on: Staphylococcus epidermidis EPI1; test: MIC, standard agar-dilution assay (Table V); format: cell-based; settings: Staphylococcus epidermidis
# Procedure: as §1
# [11] = tested on: Staphylococcus epidermidis EPI2; test: MIC, standard agar-dilution assay (Table V); format: cell-based; settings: Staphylococcus epidermidis, EPI2
# Procedure: as §1
# [12] = tested on: Klebsiella pneumoniae KAE; test: MIC, standard agar-dilution assay (Table V); format: cell-based; settings: Klebsiella pneumoniae
# Procedure: as §1
# Streptococcus Group 9960 = test: MIC, standard agar-dilution assay (Table V); format: cell-based; settings: GROUP9960
# Procedure: as §1
# [13] = tested on: Staphylococcus aureus X400; test: MIC, standard agar-dilution assay (Table V); format: cell-based; settings: Staphylococcus aureus, X400
# Procedure: as §1
# Pasteurella multocida = test: Protection of one-day-old chicks against Pasteurella multocida infection (Table IX); format: in vivo; settings: subcutaneous 30 mg/kg × 2, 1 and 4 hours post-challenge
# Procedure: The C-23 modified derivatives of OMT have also shown in vivo antibacterial activity against infections induced by gram-negative bacteria. Table IX summarizes the results of tests in which illustrative compounds were evaluated against Pasteurella infections in one-day-old chicks. The compounds were administered by subcutaneous injection at a dosage of 30 mg/kg, 1 and 4 hours post-challenge of the chicks with Pasteurella multocida (0.1 ml of a twenty-hour tryptose broth culture of an avian P. multocida given subcutaneously). In the tests, all ten non-medicated infected chicks died within 24 hours of Pasteurella challenge.
# [14] = tested on: Streptococcus pyogenes C203; test: ED50 in mice experimentally infected with S. pyogenes C203 (Table VIII); format: in vivo
# Procedure: The C-23 modified derivatives of OMT of this invention have shown in vivo antimicrobial activity against experimental infections. When two doses of test compound were administered to mice experimentally infected with a gram-positive bacterium, S. pyogenes C203, the activity observed was measured as an ED50 value [effective dose in mg/kg to protect 50% of the test animals: see Warren Wick, et al., J. Bacteriol. 81, 233-235 (1961)].
# Mycoplasma gallisepticum = test: MIC, broth-dilution microtiter test (Table VII); format: cell-based; settings: Mycoplasmoides gallisepticum
# Procedure: as §1
# [15] = tested on: Pasteurella multocida 40G; test: MIC, broth-dilution microtiter test (Table VII); format: cell-based; settings: Pasteurella multocida; P. multocida 40G; broth-dilution microtiter; read-out: MIC
# Procedure: as §1
# Streptococcus sp. 80 = test: MIC, broth-dilution microtiter test (Table VII); format: cell-based; settings: Streptococcus sp. 80; broth-dilution microtiter; read-out: MIC
# Procedure: as §1
# [16] = tested on: Pasteurella hemolytica 22C; test: MIC, broth-dilution microtiter test (Table VII); format: cell-based; settings: Pasteurella, P. hemolytica 22C, read-out: MIC
# Procedure: as §1
# [17] = tested on: Pasteurella hemolytica 41D; test: MIC, broth-dilution microtiter test (Table VII); format: cell-based; settings: Pasteurella, P. hemolytica 41D, read-out: MIC
# Procedure: as §1
# [18] = tested on: Pasteurella hemolytica 23C; test: MIC, broth-dilution microtiter test (Table VII); format: cell-based; settings: Pasteurella, P. hemolytica 23C, read-out: MIC
# Procedure: as §1
# [19] = tested on: Pasteurella multocida 17E; test: MIC, broth-dilution microtiter test (Table VII); format: cell-based; settings: Pasteurella multocida, 17E
# Procedure: as §1
# Mycoplasma synoviae = test: MIC, broth-dilution microtiter test (Table VII); format: cell-based; settings: Mycoplasmopsis synoviae
# Procedure: as §1
# [20] = tested on: Pasteurella multocida 22A; test: MIC, broth-dilution microtiter test (Table VII); format: cell-based; settings: Pasteurella multocida; P. multocida 22A; broth-dilution microtiter; read-out: MIC
# Procedure: as §1
# [21] = tested on: Pasteurella multocida 60A; test: MIC, broth-dilution microtiter test (Table VII); format: cell-based; settings: Pasteurella multocida, 60A
# Procedure: as §1
# Mycoplasma hyorhinis = test: MIC, broth-dilution microtiter test (Table VII); format: cell-based
# Procedure: as §1
# [22] = tested on: Pasteurella multocida 68C; test: MIC, broth-dilution microtiter test (Table VII); format: cell-based; settings: Pasteurella multocida
# Procedure: as §1
# Staphylococcus aureus = test: MIC, broth-dilution microtiter test (Table VII); format: cell-based; settings: Staphylococcus aureus
# Procedure: as §1
# [23] = C203, sc, mice, subcutaneous, doses given 1 and 4 hours postinfection, read-out: ED50, Subcutaneous
smiles,measurement,setting,value
"CCC1OC(=O)CC(O)C(C)C(OC2OC(C)C(O)C(N(C)C)C2O)C(CC=O)CC(C)C(=O)C=CC(C)=CC1CNC(=O)Cc1ccccc1 (centres unmarked) [Compound 10, 23-Deoxy-23-N-(phenylacetyl)amino-OMT]",MIC,[1],0.25 µg/mL
same,MIC,[2]; R252,2 µg/mL
same,MIC,[3],2 µg/mL
same,MIC,[4]; C203,0.25 µg/mL
same,MIC,"Escherichia coli TEM; E. coli TEM, agar dilution, read-out: MIC",32 µg/mL
same,MIC,Escherichia coli N10,> 128 µg/mL
same,MIC,[5],0.5 µg/mL
same,MIC,[6],0.5 µg/mL
same,MIC,[7],0.5 µg/mL
same,MIC,[8],1 µg/mL
same,MIC,Escherichia coli EC14,> 128 µg/mL
same,MIC,[9]; X26,8 µg/mL
same,MIC,Shigella sonnei N9,> 128 µg/mL
same,MIC,[10]; EPI1,0.25 µg/mL
same,MIC,[11],1 µg/mL
same,MIC,[12],> 128 µg/mL
same,MIC,Streptococcus Group 9960,0.5 µg/mL
same,MIC,[13],1 µg/mL
same,Number of deaths/number treated,Pasteurella multocida,3/10
same,ED50,"[14]; C203, po, read-out: ED50, Oral",> 100 mg/kg
same,ED50,[14]; [23],5.8 mg/kg
same,MIC,Mycoplasma gallisepticum,1.56 µg/mL
same,MIC,[15],12.5 µg/mL
same,MIC,Streptococcus sp. 80,0.19 µg/mL
same,MIC,[16],12.5 µg/mL
same,MIC,[17],25 µg/mL
same,MIC,[18],12.5 µg/mL
same,MIC,[19],3.12 µg/mL
same,MIC,"Mycoplasma synoviae; M. synoviae, broth-dilution microtiter, read-out: MIC",0.19 µg/mL
same,MIC,[20],25 µg/mL
same,MIC,[21],3.12 µg/mL
same,MIC,Mycoplasma hyorhinis,50 µg/mL
same,MIC,[22]; 68C,1.56 µg/mL
same,MIC,Staphylococcus aureus,0.78 µg/mL
"CCC1OC(=O)CC(O)C(C)C(OC2OC(C)C(O)C(N(C)C)C2O)C(CC=O)CC(C)C(=O)C=CC(C)=CC1CNC(=O)[C@H](N)c1ccccc1 (single isomer, unassigned) [Compound 12, 23-Deoxy-23-N-(D-(-)-phenylglycyl)amino-OMT bis(trifluoroacetate) salt]",MIC,"[1]; S. pneumoniae Park I, agar dilution, read-out: MIC",0.5 µg/mL
same,MIC,"[2]; H. influenzae R252, ampicillin-resistant strain, agar dilution, read-out: MIC",16 µg/mL
same,MIC,"[3]; H. influenzae Holt, ampicillin-sensitive strain, agar dilution, read-out: MIC",16 µg/mL
same,MIC,"[4]; S. pyogenes C203, agar dilution, read-out: MIC",0.5 µg/mL
same,MIC,Escherichia coli TEM,> 128 µg/mL
same,MIC,Escherichia coli N10,> 128 µg/mL
same,MIC,[5],8 µg/mL
same,MIC,[6],4 µg/mL
same,MIC,[7],8 µg/mL
same,MIC,[8],8 µg/mL
same,MIC,Escherichia coli EC14,> 128 µg/mL
same,MIC,"[9]; K. pneumoniae X26, agar dilution, read-out: MIC",16 µg/mL
same,MIC,Shigella sonnei N9,> 128 µg/mL
same,MIC,"[10]; S. epidermidis EPI1, agar dilution, read-out: MIC",4 µg/mL
same,MIC,[11],8 µg/mL
same,MIC,[12],> 128 µg/mL
same,MIC,Streptococcus Group 9960,8 µg/mL
same,MIC,[13],8 µg/mL
same,Number of deaths/number treated,Pasteurella multocida,9/10
same,ED50,"[14]; C203, po, read-out: ED50, Oral",> 100 mg/kg
same,ED50,[14]; [23],6.2 mg/kg
same,MIC,Mycoplasma gallisepticum,3.12 µg/mL
same,MIC,[15],25 µg/mL
same,MIC,Streptococcus sp. 80,6.25 µg/mL
same,MIC,[16],50 µg/mL
same,MIC,[17],50 µg/mL
same,MIC,[18],50 µg/mL
same,MIC,[19],12.5 µg/mL
same,MIC,Mycoplasma synoviae,3.12 µg/mL
same,MIC,[20],25 µg/mL
same,MIC,[21],12.5 µg/mL
same,MIC,"Mycoplasma hyorhinis; M. hyorhinis, broth-dilution microtiter, read-out: MIC",> 50 µg/mL
same,MIC,"[22]; P. multocida 68C, broth-dilution microtiter, read-out: MIC",25 µg/mL
same,MIC,"Staphylococcus aureus; S. aureus, broth-dilution microtiter, read-out: MIC",6.25 µg/mL
